Assay results from ChEMBL document CHEMBL1201862, “PubChem BioAssay data set” (2004).
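Briefly, cells in 96-well plates were exposed to five compound concentrations for 48 h, and endpoints were estimated by linear interpolation. GI50 = concentration required for 50% inhibition of growth.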 Calls of active or inactive are those of the source. Cut-off read from the data, not from the text of the source: active = GI50 up to about 1.1 µM and inactive = higher.

Columns and labels:
Test in all cases: NCI tumour cell line growth inhibition, 48 h
786-0 = tested on: 786-0
A549 = tested on: A549
COLO 205 = tested on: COLO 205
DU-145 = tested on: DU-145
HOP-92 = tested on: HOP-92
IGROV-1 = tested on: IGROV-1
KM12 = tested on: KM12
M14 = tested on: M14
MDA-MB-435 = tested on: MDA-MB-435
OVCAR-4 = tested on: OVCAR-4
OVCAR-5 = tested on: OVCAR-5
RPMI-8226 = tested on: RPMI-8226
SF-539 = tested on: SF-539
SK-MEL-28 = tested on: SK-MEL-28
SN12C = tested on: SN12C
SNB-75 = tested on: SNB-75
A498 = tested on: A498
ACHN = tested on: ACHN
NCI-H226 = tested on: NCI-H226
UO-31 = tested on: UO-31

Measured: GI50

O=C(O)CCCOc1cc(-c2ccccc2F)nc2cc3c(cc12)OCO3
inactive: 786-0 6.38 µM | A549 5.77 µM | COLO 205 3.47 µM | DU-145 5.75 µM | HOP-92 13 µM | IGROV-1 2.58 µM | KM12 4.19 µM | M14 3.73 µM | MDA-MB-435 3.18 µM | OVCAR-4 45.9 µM | OVCAR-5 8.32 µM | RPMI-8226 3.73 µM | SF-539 3.4 µM | SK-MEL-28 7.89 µM | SN12C 19.3 µM | SNB-75 6.56 µM

COC(=O)/C=C(\S/C=C(/c1ccccc1)N1CCn2c(C(=O)c3ccccc3)c(C(=O)OC)c(C(=O)OC)c21)C(=O)OC
inactive: 786-0 1.66 µM | A498 > 10 µM | A549 > 10 µM | ACHN 3.34 µM | COLO 205 1.99 µM | HOP-92 1.23 µM | IGROV-1 > 10 µM | KM12 > 10 µM | M14 2.4 µM | MDA-MB-435 3.97 µM | NCI-H226 > 10 µM | OVCAR-4 2.81 µM | OVCAR-5 9.95 µM | RPMI-8226 2.43 µM | SF-539 2.29 µM | SN12C 5.05 µM | SNB-75 > 10 µM

CN(/N=C/c1cccs1)c1ccc(Cl)cc1[N+](=O)[O-]
inactive: 786-0 59.6 µM | A549 30.3 µM | ACHN 40 µM | COLO 205 > 10 µM | DU-145 64.4 µM | IGROV-1 > 100 µM | KM12 11.4 µM | M14 34.2 µM | MDA-MB-435 5.57 µM | NCI-H226 19.8 µM | OVCAR-4 59.3 µM | RPMI-8226 22 µM | SF-539 25 µM | SK-MEL-28 78.5 µM | SN12C 24.5 µM | SNB-75 30.8 µM | UO-31 36.9 µM

CC(=O)Nc1ccc(S(=O)(=O)Nc2nc(-c3ccc(Cl)cc3)cc(N3N=C(c4ccc(Br)cc4)CC3c3ccccc3)n2)cc1 (stereo not drawn)
inactive: 786-0 18.8 µM | A549 17.7 µM | ACHN 24.5 µM | COLO 205 14.1 µM | DU-145 20.4 µM | HOP-92 13.7 µM | IGROV-1 11.8 µM | KM12 10.7 µM | M14 18.1 µM | MDA-MB-435 7.45 µM | NCI-H226 12.9 µM | OVCAR-4 15 µM | OVCAR-5 14.3 µM | RPMI-8226 12.1 µM | SF-539 16.9 µM | SK-MEL-28 18.6 µM | SN12C 16 µM | UO-31 15.4 µM

NC(=O)c1ncn(C2C=CC(CP(=O)(O)O)C2)c1N (stereo not drawn)
inactive: 786-0 > 100 µM | A549 > 100 µM | ACHN > 100 µM | COLO 205 > 100 µM | DU-145 > 100 µM | HOP-92 > 100 µM | IGROV-1 > 100 µM | KM12 > 100 µM | M14 > 100 µM | MDA-MB-435 > 100 µM | NCI-H226 > 100 µM | OVCAR-4 > 100 µM | OVCAR-5 > 100 µM | RPMI-8226 > 100 µM | SF-539 > 100 µM | SK-MEL-28 > 100 µM | SN12C > 100 µM | SNB-75 > 100 µM | UO-31 > 100 µM

Oc1ccc2ccccc2c1CCc1c(O)ccc2ccccc12
inactive: 786-0 16.2 µM | A498 18.5 µM | A549 11.7 µM | ACHN 16.4 µM | COLO 205 15.7 µM | HOP-92 11 µM | KM12 11.8 µM | M14 15.5 µM | MDA-MB-435 12.8 µM | NCI-H226 13.7 µM | OVCAR-5 14.1 µM | RPMI-8226 7.01 µM | SF-539 16.2 µM | SK-MEL-28 10.6 µM | SN12C 11.2 µM | SNB-75 3.66 µM

C[n+]1c2ccccc2c(C(=O)Nc2ccc(S(=O)(=O)Nc3ncccn3)cc2)c2ccccc21
inactive: 786-0 > 100 µM | A549 > 100 µM | ACHN > 100 µM | COLO 205 > 100 µM | DU-145 > 100 µM | IGROV-1 > 100 µM | KM12 > 100 µM | M14 > 100 µM | MDA-MB-435 42.3 µM | NCI-H226 37.4 µM | OVCAR-4 > 100 µM | OVCAR-5 > 100 µM | RPMI-8226 > 100 µM | SF-539 > 100 µM | SK-MEL-28 > 100 µM | SN12C > 100 µM | SNB-75 72.8 µM | UO-31 75.5 µM

N=c1sc(N2CCOCC2)nn1CC(=O)c1ccccc1
inactive: 786-0 > 100 µM | A549 > 100 µM | ACHN > 100 µM | COLO 205 > 100 µM | DU-145 > 100 µM | IGROV-1 > 100 µM | KM12 > 100 µM | M14 > 100 µM | MDA-MB-435 > 100 µM | NCI-H226 > 100 µM | OVCAR-4 > 100 µM | OVCAR-5 > 100 µM | RPMI-8226 > 100 µM | SK-MEL-28 > 100 µM | SN12C > 100 µM | SNB-75 > 100 µM | UO-31 > 100 µM
